Data from paper PMC6934184, “Selective DNA-PKcs inhibition extends the therapeutic index of localized radiotherapy and chemotherapy” (The Journal of Clinical Investigation, 2019).

Molecular target: T1, TGFBR2 (Homo sapiens, UniProt P37173)
T1 construct: purchased Thermo Fisher Scientific (Life Technologies) SelectScreen
Assay: SelectScreen LanthaScreen
Assay type: binding
Conditions: read-out: % displacement
Procedure, shortened: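 NU5455 was profiled across the SelectScreen Broad panel of kinase activity and binding assays. Z'LYTE reactions such as CSF1R ran at apparent Km ATP, while the Adapta CAMK1 assay used ATP listed as 10. Values are given as percent.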

T1 sequence (P37173 23-567): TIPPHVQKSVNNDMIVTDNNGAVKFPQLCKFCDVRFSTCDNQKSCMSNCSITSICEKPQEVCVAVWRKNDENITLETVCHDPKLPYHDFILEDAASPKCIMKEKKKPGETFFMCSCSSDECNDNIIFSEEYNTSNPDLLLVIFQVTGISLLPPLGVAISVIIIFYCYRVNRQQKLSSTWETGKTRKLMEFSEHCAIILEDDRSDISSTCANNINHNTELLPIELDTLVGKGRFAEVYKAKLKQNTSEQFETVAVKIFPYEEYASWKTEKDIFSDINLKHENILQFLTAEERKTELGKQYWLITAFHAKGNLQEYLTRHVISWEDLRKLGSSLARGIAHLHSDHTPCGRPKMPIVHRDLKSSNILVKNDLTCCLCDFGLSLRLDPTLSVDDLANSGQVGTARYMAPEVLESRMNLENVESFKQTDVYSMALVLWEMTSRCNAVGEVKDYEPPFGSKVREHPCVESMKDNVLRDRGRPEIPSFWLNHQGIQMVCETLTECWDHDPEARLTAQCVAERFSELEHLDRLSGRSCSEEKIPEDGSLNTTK

With `CN(C(=O)CN1CCOCC1)c1ccc2sc3c(-c4cccc5c(=O)cc(N6CC7CCC(C6)O7)oc45)cccc3c2c1` [NU5455] the inhibition at 1 µM was -0.1%.
